Converted amounts (≈) assume the structure as drawn. Where two headings read alike, the source gives them in different places.
Experiments:
HSV- I = experiment: HSV antiviral (ELISA) assay; format: cell-based; conditions: read-out: IC50 (ug/ml) HSV
Method in brief: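 Vero cells in DMEM with 2% FBS treated with compound 30 min before HSV-1 infection (MOI 0.006), then incubated ~24 h at 37°C. Viral replication measured by ELISA against glycoprotein D with β-galactosidase-linked secondary and fluorogenic substrate (ex 365/em 450 nm); IC50 relative to untreated fluorescence.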

VZV strain Ellen = experiment: VZV antiviral (ELISA) assay; format: cell-based
Method in brief: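 HFF cells infected with VZV Ellen at multiplicity below 0.1 overnight, then mixed infected/uninfected cells seeded with compound in DMEM/2% FBS and incubated three days at 37°C, 5% CO2.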

[1] = test system: HCMV recombinant mutant virus whose genome contains the prokaryotic beta-glucuronidase gene; experiment: microbe, parasite or virus in culture; format: cell-based, human cytomegalovirus; conditions: Human betaherpesvirus 5, Fibroblast
Method in brief: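 Human foreskin fibroblasts infected with HCMV recombinant carrying beta-glucuronidase under a viral promoter (e.g. RV145) in presence of compound. At 96 h post-infection, lysates assayed for beta-glucuronidase by colorimetric or fluorogenic substrate as replication readout; IC50 estimated from varying compound amounts.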

[2] = Human alphaherpesvirus 3, VZV strain Ellen, HFF cells, ELISA, read-out: IC50 (ug/ml) VZV
[3] = Human alphaherpesvirus 3, HFF, read-out: % inhibition 10 ug/ml VZV
[4] = Human alphaherpesvirus 3, HFF, read-out: IC50 (ug/ml) VZV
[5] = read-out: IC50 ug/ml HCMV, HCMV, human foreskin fibroblasts
[6] = Human alphaherpesvirus 3, read-out: % inhibition 10 ug/ml VZV, 10 ug/ml, VZV strain Ellen, HFF cells, ELISA
[7] = Human alphaherpesvirus 3, HFF, read-out: IC50 (ug/ml) VZV, VZV strain Ellen, HFF cells, ELISA

Compound | IC50 (HSV- I; HSV- I, Vero cells, ELISA) [µg/mL] | IC50 (VZV strain Ellen; [2]) [µg/mL] | IC50 ([1]; read-out: IC50 ug/ml HCMV) [µg/mL] | inhibition at 10 µg/mL (VZV strain Ellen; [3]) [%] | IC50 (VZV strain Ellen; [4]) [µg/mL] | IC50 [1, 5] [µg/mL] | inhibition at 10 µg/mL (VZV strain Ellen; [6]) [%] | IC50 (HSV- I; Vero) [µg/mL] | IC50 (VZV strain Ellen; [7]) [µg/mL]
CC(NC(=S)Nc1ccc(NC(=O)c2cccc(C#N)c2)cc1)c1ccc(F)cc1 (stereo not shown) [Example 1020, 3-Cyano-N-(4-{3-[1-(4-fluoro-phenyl)-ethyl]-thioureido}-phenyl)-benzamide] | > 10 | 6.3 (≈ 15.1 µM) | 6.5 (≈ 15.5 µM) |  |  |  |  |  | 
COc1cc(OC)c(NC(=S)Nc2ccc(NC(=O)c3ccccc3CO)cc2)cc1Cl [Example 185, N-{4-[3-(5-Chloro-2,4-dimethoxy-phenyl)-thioureido]-phenyl}-2-hydroxy-methyl-benzamide] | 3 (≈ 6.36 µM) |  |  | 32 | > 10 | 10 (≈ 21.2 µM) |  |  | 
CN(c1ccc(NC(=S)Nc2ccc(NC(=O)c3c(F)cccc3F)cc2)cc1Cl)C1CCCCC1 [Example 248, N-(4-{3-[3-Chloro-4-(cyclohexyl-methyl-amino)-phenyl]-thioureido}-phenyl)-2,6-difluoro-benzamide] | > 10 |  |  | 96 | 2 (≈ 3.78 µM) | 2 (≈ 3.78 µM) |  |  | 
NC(=O)c1cccc(NC(=S)Nc2ccc(NC(=O)c3ccccc3F)cc2)c1 [Example 952, N-[4-[[[[3-(Aminocarbonyl)phenyl]amino]thioxomethyl]amino]phenyl]-2-fluoro-benzamide] | > 10 | > 10 | > 10 |  |  |  | 22 |  | 
CC(NC(=S)Nc1ccc(NC(=O)c2ccccc2F)cc1)c1cccc(C#N)c1 (stereo not shown) [Example 791, N-(4-{3-[1-(3-Cyano-phenyl)-ethyl]-thioureido}-phenyl)-2-fluoro-benzamide] | > 10 | 7 (≈ 16.7 µM) | 7.3 (≈ 17.4 µM) |  |  |  |  |  | 
COc1cc(OC)c(NC(=S)Nc2ccc(NC(=O)c3ccccc3F)cc2)cc1Cl [Example 118, N-{4-[3-(5-Chloro-2,4-dimethoxy-phenyl)-thioureido]-phenyl}-2-fluoro-benzamide] |  |  |  |  |  | 3 (≈ 6.52 µM) |  | 0.15 (≈ 0.326 µM) | > 10
O=C(Nc1ccc(NC(=S)Nc2cc(Cl)cc(Cl)c2)cc1)c1ccccc1F [Example 934, N-{4-[3-(3,5-Dichloro-phenyl)-thioureido]-phenyl}-2-fluoro-benzamide] | > 10 |  |  | 18 | > 10 | > 10 |  |  | 
COc1cc(OC)c(NC(=S)Nc2ccc(NC(=O)c3ccc(F)cc3F)cc2)cc1Cl [Example 188, N-{4-[3-(5-Chloro-2,4-dimethoxy-phenyl)-thioureido]-phenyl}-2,4-difluoro-benzamide] | 1.2 (≈ 2.51 µM) |  |  | 22 | > 10 | > 10 |  |  | 
COc1ccc(NC(=S)Nc2ccc(NC(=O)c3cccc(F)c3)cc2)cc1Cl [Example 822, N-{4-[3-(3-Chloro-4-methoxy-phenyl)-thioureido]-phenyl}-3-fluoro-benzamide] | 3 (≈ 6.98 µM) |  |  | 0 | > 10 | 3 (≈ 6.98 µM) |  |  | 
COc1cc(OC)c(NC(=S)Nc2ccc(NC(=O)c3ccccc3OC(C)=O)cc2)cc1Cl [Example 115, Acetic acid 2-{4-[3-(5-chloro-2,4-dimethoxy-phenyl)-thioureido]-phenyl-carbamoyl}-phenyl ester] | 4 (≈ 8 µM) |  |  | 98 | 4 (≈ 8 µM) | 8 (≈ 16 µM) |  |  | 
COc1cc(OC)c(NC(=S)Nc2ccc(NC(=O)c3cccc(O)c3)cc2)cc1Cl [Example 254, N-{4-[3-(5-Chloro-2,4-dimethoxy-phenyl)-thioureido]-phenyl}-3-hydroxy-benzamide] | 0.9 (≈ 1.97 µM) |  |  | 110 | 4 (≈ 8.73 µM) | 4 (≈ 8.73 µM) |  |  | 
Cc1ccc([C@H](C)NC(=S)Nc2ccc(NC(=O)c3ccccc3F)cc2)cc1 [Example 1011, 2-Fluoro-N-{4-[3-((1S)-1-p-tolyl-ethyl)-thioureido]-phenyl}-benzamide] |  |  |  |  |  | 6.8 (≈ 16.7 µM) |  | > 10 | 0.55 (≈ 1.35 µM)
COc1ccccc1C(=O)Nc1ccc(NC(=S)NC(C)c2ccc(C#N)cc2)cc1 (stereo not shown) [Example 1017, N-(4-{3-[1-(4-Cyano-phenyl}-ethyl]-thioureido}-phenyl)-2-methoxy-benzamide] |  |  |  |  |  | > 10 |  | > 10 | 0.3 (≈ 0.697 µM)
CC(NC(=S)Nc1ccc(NC(=O)c2ccccc2F)cc1)c1ccc(S(=O)(=O)N2CCCCC2)cc1 (stereo not shown) [Example 1009, 2-Fluoro-N-[4-(3-{1-[4-(piperidine-1-sulfonyl)-phenyl]-ethyl}-thioureido)-phenyl]-benzamide] |  |  |  |  |  | > 10 |  | > 10 | > 10
CC(NC(=S)Nc1ccc(NC(=O)c2ccc(C(F)(F)F)cc2)cc1)c1ccc(F)cc1 (stereo not shown) [Example 1021, N-(4-{3-[1-(4-Fluoro-phenyl)-ethyl]-thioureido}-phenyl)-4-trifluoromethyl-benzamide] | > 10 | 0.4 (≈ 0.867 µM) | > 10 |  |  |  |  |  | 
COc1ccc(C(=O)Nc2ccc(NC(=S)Nc3cc(Cl)c(OC)c(Cl)c3)cc2)cc1 [Example 880, N-{4-[3-(3,5-Dichloro-4-methoxy-phenyl)-thioureido]-phenyl}-4-methoxy-benzamide] | > 10 |  |  | 30 | > 10 | 10 (≈ 21 µM) |  |  | 
O=C(Nc1ccc(NC(=S)Nc2cccc(O)c2)cc1)c1ccccc1F [Example 475, 2-Fluoro-N-{4-[3-(3-hydroxy-phenyl)-thioureido]-phenyl}-benzamide] | 5 (≈ 13.1 µM) | > 10 | > 10 |  |  |  | 28 |  | 
CC(NC(=S)Nc1ccc(NC(=O)c2cnc3ccccc3c2)cc1)c1ccc(F)cc1 (stereo not shown) [Example 988, Quinoline-3-carboxylic acid (4-{3-[1-(4-fluoro-phenyl)-ethyl]-thioureido}-phenyl)-amide] | > 10 |  |  |  | 3.4 (≈ 7.65 µM) | > 10 |  |  | 
CC(NC(=S)Nc1ccc(NC(=O)c2cc3ccccc3cn2)cc1)c1ccc(C#N)cc1 (stereo not shown) [Example 986, Isoquinoline-3-carboxylic acid (4-{3-[1-(4-cyano-phenyl)-ethyl]-thioureido}-phenyl)-amide] |  |  |  |  |  | 5.2 (≈ 11.5 µM) |  | > 10 | 0.05 (≈ 0.111 µM)
COc1cc(OC)c(NC(=S)Nc2ccc(NC(=O)c3ccccc3C(=O)O)cc2)cc1Cl [Example 184, N-{4-[3-(5-Chloro-2,4-dimethoxy-phenyl)-thioureido]-phenyl}-phthalamic acid] |  |  |  |  |  | > 50 |  | > 50 | > 10
CN1CCC(N(C)c2ccc(NC(=S)Nc3ccc(NC(=O)c4c(F)cccc4F)cc3)cc2Cl)C1 (stereo not shown) [Example 349, N-[4-(3-{3-Chloro-4-[methyl-(1-methyl-pyrrolidin-3-yl)-amino]-phenyl}-thioureido)-phenyl]-2,6-difluoro-benzamide] | 5 (≈ 9.43 µM) |  |  | 110 | 4 (≈ 7.55 µM) | 1.2 (≈ 2.26 µM) |  |  | 
CC(NC(=S)Nc1ccc(NC(=O)c2ccc(C#N)cc2)cc1)c1ccc(F)cc1 (stereo not shown) [Example 1022, 4-Cyano-N-(4-{3-[1-(4-fluoro-phenyl)-ethyl]-thioureido}-phenyl)-benzamide] | > 10 | 1.5 (≈ 3.58 µM) | 4.4 (≈ 10.5 µM) |  |  |  |  |  | 
COc1cc(OC)c(NC(=S)Nc2ccc(NC(=O)c3ccccc3F)cc2Cl)cc1Cl [Example 355, N-{3-Chloro-4-[3-(5-chloro-2,4-dimethoxy-phenyl)-thioureido]-phenyl}-2-fluoro-benzamide] | 0.035 (≈ 0.0708 µM) |  |  | 40 | > 10 | > 10 |  |  | 
O=C(Nc1ccc(NC(=S)Nc2ccc(OCC(F)(F)F)cc2OCC(F)(F)F)cc1)c1ccccc1F [Example 1010, N-(4-{3-[2,4-Bis-(2,2,2-trifluoro-ethoxy)-phenyl]-thioureido}-phenyl)-2-fluoro-benzamide] | > 10 | > 10 | > 10 |  |  |  |  |  | 
CC(C)C(NC(=S)Nc1ccc(NC(=O)c2ccccc2F)cc1)c1ccc(F)cc1 (stereo not shown) [Example 790, 2-Fluoro-N-(4-{3-[1-(4-fluoro-phenyl)-2-methyl-propyl]-thioureido}-phenyl)-benzamide] |  |  |  |  |  | 1.5 (≈ 3.41 µM) |  | > 10 | 2.5 (≈ 5.69 µM)
CC(NC(=S)Nc1ccc(NC(=O)c2ccccc2Br)cc1)c1ccc(F)cc1 (stereo not shown) [Example 795, 2-Bromo-N-(4-{3-[1-(4-fluoro-phenyl)-ethyl]-thioureido}-pbenyl)-benzamide] |  |  |  |  |  | 4.1 (≈ 8.68 µM) |  | 8.6 (≈ 18.2 µM) | > 7.5
COc1cccc(C(C)NC(=S)Nc2ccc(NC(=O)c3ccccc3F)cc2)c1 (stereo not shown) [Example 789, 2-Fluoro-N-(4-{3-[1-(3-methoxy-phenyl)-ethyl]-thioureido}-phenyl)-benzamide] |  |  |  |  |  | > 2.2 |  | > 10 | 1.5 (≈ 3.54 µM)
CC(C)COc1ccc(NC(=S)Nc2ccc(NC(=O)c3ccccc3F)cc2)cc1Cl [Example 994, N-{4-[3-(3-Chloro-4-isobutoxy-phenyl)-thioureido]-phenyl}-2-fluoro-benzamide] |  |  |  |  |  | > 10 |  | > 10 | > 10
O=C(Nc1ccc(NC(=S)Nc2ccc(Cl)c(Cl)c2)cc1)c1ccccc1F [Example 912, N-{4-[3-(3,4-Dichloro-phenyl)-thioureido]-phenyl}-2-fluoro-benzamide] | 8 (≈ 18.4 µM) |  |  | 21 | > 10 | > 10 |  |  | 

— patent publication EP1137645B1, “ALPHA-METHYLBENZYL-CONTAINING THIOUREA INHIBITORS OF HERPES VIRUSES CONTAINING A […] GROUP” (Wyeth, priority 1998, dated 2000)
